Assays:
[1] = system: human cancer cell lines (HeLa, SiHa, MCF-7, MDA-MB-231, A2780); test: MTT antiproliferative assay, panel of malignant cells; assay type: cell-based; conditions: for antiproliferative action at higher concentration (in words): 30 μM
Method: (§1) The in vitro anticancer effects of the presented compounds were assessed using the standard MTT [3-(4,5-dimethylthiazol2-yl)-2,5-diphenyltetrazolium bromide] assay on the following human cancer cell lines: cervical (HeLa and SiHa), breast (MCF-7 and MDA-MB-231) and ovarian cancer (A2780). The selectivity of the tested compounds was determined on murine embryonal fibroblast cells (NIH/3T3). The utilised cell lines were purchased from the European Collection of Cell Cultures (Salisbury, UK). The cells were cultivated in Eagle’s minimal essential medium supplemented with 10% fetal bovine serum, 1% non-essential amino acids and 1% antibiotic-antimycotic complex (penicillin, streptomycin, amphotericin B) at 37 °C in a humidified atmosphere containing 5% CO2. All media and supplements were purchased from Lonza Group Ltd. (Basel, Switzerland). The cancer cells were seeded into 96-well plates (5000 cells/well) and incubated overnight, and the test compounds were applied in two different concentrations (10 µM and 30 µM) and incubated for another 72 h under cell-culturing conditions. […] After 72 h, 20 µL of the 5 mg/mL MTT solution was added to each well, and the plates were incubated for 4 h. The medium was removed, and the formazan crystals produced by the mitochondrial activity were dissolved in dimethyl sulfoxide (DMSO) via shaking at 37 °C for 30 min. The absorbances were measured at 545 nm using a microplate reader (SPECTROStar Nano, BMG Labtech, Offenburg, Germany). The reference agent was cisplatin, which is a widely used cytotoxic agent. The IC50 values were calculated using sigmoid curve fitting. Two independent experiments were performed with five parallel wells for each condition. Calculations were performed using the GraphPad Prism 9 software (GraphPad Software Inc., San Diego, CA, USA).

NIH/3T3 fibroblast cells = test: MTT assay on non-malignant fibroblasts (selectivity); assay type: cell-based, murine; conditions: Mus musculus, NIH3T3; for inhibition at 10 µM: NIH/3T3, 10 μM; for inhibition at 10 µM / inhibition at 30 µM: 72 h, read-out: Growth inhibition (%) ± SEM; for inhibition at 30 µM: NIH/3T3, 30 μM
Method: as §1

HeLa cells = test: MTT antiproliferative assay, HeLa; assay type: cell-based; conditions: Homo sapiens, 72 h; for inhibition at 10 µM / inhibition at 30 µM: read-out: Growth inhibition (%) ± SEM
Method: as §1

MDA-MB-231 cells = test: MTT antiproliferative assay, MDA-MB-231; assay type: cell-based; conditions: Homo sapiens; for inhibition at 10 µM: MDA-MB-231, 10 μM; for inhibition at 10 µM / inhibition at 30 µM: 72 h, read-out: Growth inhibition (%) ± SEM; for inhibition at 30 µM: MDA-MB-231, 30 μM
Method: as §1

A2780 cells = test: MTT antiproliferative assay, A2780; assay type: cell-based; conditions: Homo sapiens; for inhibition at 10 µM: A2780, 10 μM; for inhibition at 10 µM / inhibition at 30 µM: 72 h, read-out: Growth inhibition (%) ± SEM; for inhibition at 30 µM: A2780, 30 μM
Method: as §1

SiHa cells = test: MTT antiproliferative assay, SiHa; assay type: cell-based; conditions: Homo sapiens, 72 h; for inhibition at 10 µM / inhibition at 30 µM: read-out: Growth inhibition (%) ± SEM
Method: as §1

MCF-7 cells = test: MTT antiproliferative assay, MCF-7; assay type: cell-based; conditions: Homo sapiens, MCF7; for inhibition at 10 µM: MCF-7, 10 μM; for inhibition at 10 µM / inhibition at 30 µM: 72 h, read-out: Growth inhibition (%) ± SEM; for inhibition at 30 µM: MCF-7, 30 μM
Method: as §1

Structure (SMILES)	melting point	antiproliferative action at higher concentration (in words) [1]	inhibition at 10 µM (NIH/3T3 fibroblast cells)	inhibition at 30 µM (NIH/3T3 fibroblast cells)	inhibition at 10 µM (HeLa cells)	inhibition at 30 µM (HeLa cells)	inhibition at 10 µM (MDA-MB-231 cells)	inhibition at 30 µM (MDA-MB-231 cells)	inhibition at 10 µM (A2780 cells)	inhibition at 30 µM (A2780 cells)	inhibition at 10 µM (SiHa cells)	inhibition at 30 µM (SiHa cells)	inhibition at 10 µM (MCF-7 cells)	inhibition at 30 µM (MCF-7 cells)	further results
COC(=O)[C@]1(C)CCC[C@@]2(C)[C@@H]3CC[C@@]4(CO)C[C@]3(CC[C@@H]21)C[C@H]4N [Compound 6, (4R,4aS,6aR,8R,9R,11aR,11bS)-Methyl 8-amino-9-(hydroxymethyl)-4,11b-dimethyltetradecahydro-6a,9-methanocyclohepta[a]naphthalene-4-carboxylate]	166 to 170 °C	pronounced cell growth inhibition	22.1 ± 1.54%	98.27 ± 0.37%	23.2 ± 1.97%	93.94 ± 0.55%	25.8 ± 2.49%	97.6 ± 0.67%	24.8 ± 5.19%	82.5 ± 4.66%	< 20%	68.24 ± 0.61%	36.4 ± 3.48%	98.58 ± 0.22%	
COC(=O)[C@]1(C)CCC[C@@]2(C)[C@@H]3CC[C@@]4(CO)C[C@]3(CC[C@@H]21)C[C@H]4N[C@@H](C)c1ccc2ccccc2c1 [Compound 16, (4R,4aS,6aR,8R,9R,11aR,11bS)-Methyl 9-(hydroxymethyl)-4,11b-dimethyl-8-(((S)-1-(naphthalen-2-yl)ethyl)amino)tetradecahydro-6a,9-methanocyclohepta[a]naphthalene-4-carboxylate]	105 to 108 °C		< 20%	96.83 ± 0.66%	55.4 ± 2.81%	95.7 ± 1.12%	84.4 ± 2.92%	93.6 ± 1.23%	97.6 ± 2.81%	100.3 ± 0.57%	80 ± 1.41%	89.4 ± 1.03%	81 ± 2.03%	97.95 ± 0.56%	IC50 ([1]; Homo sapiens, range over the five cancer cell lines): 3.44 to 6.33 µM; IC50 (NIH/3T3 fibroblast cells; NIH/3T3, 72 h, read-out: calculated IC50): 17.4 µM; IC50 (HeLa cells; read-out: calculated IC50): 3.4 µM; IC50 (MDA-MB-231 cells; MDA-MB-231, 72 h, read-out: calculated IC50): 4.51 µM; IC50 (A2780 cells; A2780, 72 h, read-out: calculated IC50): 4.43 µM; IC50 (SiHa cells; read-out: calculated IC50): 6.33 µM; IC50 (MCF-7 cells; MCF-7, 72 h, read-out: calculated IC50): 3.88 µM
COC(=O)[C@]1(C)CCC[C@@]2(C)[C@@H]3CC[C@@]4(CO)C[C@]3(CC[C@@H]21)C[C@H]4N[C@H](C)c1cccc2ccccc12 [Compound 13, (4R,4aS,6aR,8R,9R,11aR,11bS)-Methyl 9-(hydroxymethyl)-4,11b-dimethyl-8-(((R)-1-(naphthalen-1-yl)ethyl)amino)tetradecahydro-6a,9-methanocyclohepta[a]naphthalene-4-carboxylate]	180 to 185 °C		< 20%	96.88 ± 0.74%	< 20%	92.3 ± 2.7%	< 20%	94.3 ± 1.83%	83.7 ± 1.95%	99.02 ± 0.39%	24.2 ± 3.46%	87.9 ± 1.62%	56.7 ± 3.88%	96.84 ± 0.55%	
CC[C@@H](N[C@@H]1C[C@]23CC[C@H]4[C@@](C)(CCC[C@@]4(C)C(=O)OC)[C@@H]2CC[C@@]1(CO)C3)c1ccccc1 [Compound 12, (4R,4aS,6aR,8R,9R,11aR,11bS)-Methyl 9-(hydroxymethyl)-4,11b-dimethyl-8-(((R)-1-phenylpropyl)amino)tetradecahydro-6a,9-methanocyclohepta[a]naphthalene-4-carboxylate]	174 to 176 °C		29.2 ± 1.33%	95.53 ± 0.49%	< 20%	90.8 ± 3.71%	< 20%	91.6 ± 2.36%	64.7 ± 1.95%	98.32 ± 0.23%	< 20%	82.4 ± 2.09%	48.6 ± 0.5%	92.3 ± 2.89%	
COC(=O)[C@]1(C)CCC[C@@]2(C)[C@@H]3CC[C@@]4(CN=[N+]=[N-])C[C@]3(CC[C@@H]21)CC4=O [Compound 19, (4R,4aS,6aR,9S,11aR,11bS)-Methyl 9-(azidomethyl)-4,11b-dimethyl-8-oxotetradecahydro-6a,9-methanocyclohepta[a]naphthalene-4-carboxylate]	97 to 99 °C	no substantial action	< 20%	< 20%	31.6 ± 1.34%	46.86 ± 0.27%	< 20%	< 20%	< 20%	41.7 ± 1.99%	< 20%	< 20%	< 20%	38 ± 1.36%	

Continued, in another order:

melting point	Structure (SMILES)	antiproliferative action at higher concentration (in words) [1]	inhibition at 10 µM (NIH/3T3 fibroblast cells)	inhibition at 30 µM (NIH/3T3 fibroblast cells)	inhibition at 10 µM (HeLa cells)	inhibition at 30 µM (HeLa cells)	inhibition at 10 µM (MDA-MB-231 cells)	inhibition at 30 µM (MDA-MB-231 cells)	inhibition at 10 µM (A2780 cells)	inhibition at 30 µM (A2780 cells)	inhibition at 10 µM (SiHa cells)	inhibition at 30 µM (SiHa cells)	inhibition at 10 µM (MCF-7 cells)	inhibition at 30 µM (MCF-7 cells)	further results
127 to 130 °C	COC(=O)[C@]1(C)CCC[C@@]2(C)[C@@H]3CC[C@@]4(CO)C[C@]3(CC[C@@H]21)C[C@@H]4N [Compound 7, (4R,4aS,6aR,8S,9R,11aR,11bS)-Methyl 8-amino-9-(hydroxymethyl)-4,11b-dimethyltetradecahydro-6a,9-methanocyclohepta[a]naphthalene-4-carboxylate]	pronounced cell growth inhibition	< 20%	97.76 ± 0.7%	24.9 ± 2.49%	96.89 ± 0.54%	28 ± 1.84%	97.67 ± 0.67%	27 ± 4.31%	91.6 ± 1.97%	< 20%	88.6 ± 2.01%	43.1 ± 3.79%	99.33 ± 0.24%	
64 to 68 °C	COC(=O)C1(C)CCCC2(C)C3CCC4(CN)CC3(CCC12)CC4O [Compound 31, (4. R,4aS,6aR,8R,9S,11aR,11bS)-Methyl 9-(aminomethyl)-8-hydroxy-4,11b-dimethyltetradecahydro-6a,9-methanocyclohepta[a]naphthalene-4-carboxylate]		< 20%	97.62 ± 0.71%	< 20%	96.02 ± 0.89%	49.5 ± 3.47%	96.82 ± 0.65%	37.3 ± 1.04%	97.52 ± 0.8%	< 20%	95.68 ± 0.81%	72.7 ± 3.15%	99.42 ± 0.23%	
72 to 74 °C	COC(=O)[C@]1(C)CCC[C@@]2(C)[C@@H]3CC[C@@]4(CN=[N+]=[N-])C[C@]3(CC[C@@H]21)C[C@H]4O [Compound 20, (4R,4aS,6aR,8R,9S,11aR,11bS)-Methyl 9-(azidomethyl)-8-hydroxy-4,11b-dimethyltetradecahydro-6a,9-methanocyclohepta[a]naphthalene-4-carboxylate]	no substantial action	< 20%	< 20%	< 20%	< 20%	< 20%	< 20%	< 20%	27 ± 2.25%	< 20%	< 20%	< 20%	30.7 ± 0.93%	

Reference: paper PMC10745768, “Stereoselective Synthesis and Antiproliferative Activity of Steviol-Based Diterpene 1,3-Aminoalcohol Regioisomers” (Molecules, 2023)
